This is an account of results in article PMC7864055, “Biochemical and biophysical analyses of hypoxia sensing prolyl hydroxylases from Dictyostelium discoideum and Toxoplasma gondii” (The Journal of Biological Chemistry, 2021).

The target of one assay is T1, DdPhyA (Dictyostelium discoideum, UniProt Q86KR9).
T1 construct: gene phyA; full-length aa 1-284, E. coli BL21 Gold (DE3), N-terminal His6-ZBasic tag cleaved by TEV, EDTA-treated to remove metal
Put plainly: differential scanning fluorimetry, SYPRO Orange. It counts as binding. To be noted: with metal (Ni(II)); 25-80 °C; construct (full-length or truncated) not told in main text. In general terms: Differential scanning fluorimetry follows unfolding on heating by fluorescence.

A further assay deals with T2, DdPhyA(60-284) (Dictyostelium discoideum, UniProt Q86KR9).
T2 construct: gene phyA; catalytic domain residues 60-284 (once printed 60-286), E. coli, His6-ZBasic tag cleaved; 3 molecules per asymmetric unit; Ni(II) substituting for Fe(II)
Put plainly: X-ray crystallography, […] Å. It counts as binding. The note with it: Ni(II) in place of Fe(II); active site, bidentate to metal, no Skp1 substrate. From the text:
The C-5 carboxylate of NOG is bound

The target in assay [1] is T3, TgPhyA (Toxoplasma gondii, UniProt A0A7J6K353).
T3 construct: gene TGRH88_076950; full-length, recombinant; purification in Supporting information
T3 sequence (A0A7J6K353 1-271): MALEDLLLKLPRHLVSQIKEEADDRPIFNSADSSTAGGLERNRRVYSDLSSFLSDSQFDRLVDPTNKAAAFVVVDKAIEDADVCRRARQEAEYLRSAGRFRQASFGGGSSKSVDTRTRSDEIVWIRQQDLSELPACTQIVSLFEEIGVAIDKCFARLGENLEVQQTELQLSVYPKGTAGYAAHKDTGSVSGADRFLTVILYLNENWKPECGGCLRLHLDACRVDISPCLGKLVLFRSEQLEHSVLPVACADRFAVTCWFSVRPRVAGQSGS
Put plainly: differential scanning fluorimetry, SYPRO Orange. In kind it is binding. To be noted: with metal (Ni(II)); 25-80 °C.

The target in assay [2] is T3, TgPhyA. Put plainly: 1H NMR of 2OG conversion to succinate. In kind it is biochemical. To be noted: uncoupled (no Skp1); enzyme 20 μM, 2OG 500 μM, Fe(II) 50 μM, ascorbate 1 mM, Tris-D11 pH 7.5, room temperature.

Molecules are shown by their SMILES.

T1 sequence (Q86KR9 whole entry, the tested form may be a part): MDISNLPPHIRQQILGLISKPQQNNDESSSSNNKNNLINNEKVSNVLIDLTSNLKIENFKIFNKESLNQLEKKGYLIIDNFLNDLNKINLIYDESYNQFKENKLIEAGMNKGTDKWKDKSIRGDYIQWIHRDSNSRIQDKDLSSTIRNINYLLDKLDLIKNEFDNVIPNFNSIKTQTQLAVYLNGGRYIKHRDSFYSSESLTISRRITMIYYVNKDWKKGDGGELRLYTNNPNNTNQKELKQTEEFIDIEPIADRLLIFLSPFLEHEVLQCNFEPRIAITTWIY
T2 sequence (Q86KR9 60-284): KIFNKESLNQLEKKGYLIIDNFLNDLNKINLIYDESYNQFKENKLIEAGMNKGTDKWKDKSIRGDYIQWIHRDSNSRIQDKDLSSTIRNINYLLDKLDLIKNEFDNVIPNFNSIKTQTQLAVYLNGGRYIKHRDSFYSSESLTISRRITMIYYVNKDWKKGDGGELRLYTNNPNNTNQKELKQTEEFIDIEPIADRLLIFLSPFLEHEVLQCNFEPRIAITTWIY

Regarding `O=C(O)CNC(=O)C(=O)O` [NOG], the Tm shift result at DdPhyA is “Ni(II) ions and N-oxalylglycine (a stable 2OG analog, Fig. S9) stabilize the enzymes”; at TgPhyA [1], “Ni(II) ions and N-oxalylglycine (a stable 2OG analog, Fig. S9) stabilize the enzymes”. Besides, on DdPhyA(60-284), the “X-ray crystallography, 2.02 Å” value is “the latter in a bidentate manner. The C-5 carboxylate of NOG is bound”.
For `O=C(O)CCC(=O)C(=O)O` [2OG], the 2OG turnover entry at TgPhyA [2] is recorded as “TgPhyA exhibited substantial uncoupled 2OG turnover in the absence of substrate”.
